Laboratory results reported in US20100069345A1, “Lanthanide-porphyrin complexes as anti-tumor agents” (priority 2005, published 2010).

What was measured:
[1] = system: Caspase 3; assay: Western blotting analysis, caspase 3; assay type: cell-based, human; conditions: HeLa, 2 μM, 32 h
Protocol: Cells were washed in cold phosphate-buffered saline (PBS) at 4° C. and lysed in a buffer containing 0.05 M Tis.HCl (pH 7.5), 0.25 M NaCl, 0.005 M EDTA, 0.05 M NaF, 1 mM DTT and 1% Triton. Cell lysates were collected and the protein concentration of cell lysates was measured using a Protein detection kit (Bio-Rad). Equal amount of proteins was resolved in a 12% SDS-PAGE gel and transferred onto nitrocellulose membranes. The membrane was blocked with a blocking solution (1×TBS, 0.1% Tween-20 with 5% non-fat dry milk) at room temperature for 1 h, and washed three times with washing buffer (1×TBS, 0.1% Tween-20) for 5 min each. The membrane was then incubated with primary antibody (Caspase 3, Bid, PARP and β-Actin respectively) for overnight at 4° C. The membrane was washed three times with washing buffer for 5 min each before incubation with the corresponding secondary antibody (horse anti-mouse IgG or goat anti-rabbit IgG). Membrane was washed again and signals were detected using an ECL detection kit (Amersham Pharmacia Biotech) followed by the exposure to X-ray films (Fujifilm).
After treatment with complex 1 for different time intervals, the expressions of caspase 3, Bid and PARP were detected by the Western blotting analysis. […] Moreover, treatment with complex 1 leads to a reduction in the level of un-cleaved Bid.

[2] = system: multi-drug resistant cell line QGY-TR50; assay: MTT cell viability assay, QGY-TR50; assay type: cell-based, human
Description: (§1) Human cervical epitheloid carcinoma cells (HeLa), human hepatocellular carcinoma cells (HepG2 and Hep3B), human breast cancer cells (MCF-7), human coloadenocarcinoma cells (HCT-8), and normal human lung fibroblast cells (CCD-19Lu) were purchased from American Type Culture Collection (ATCC) Rockville, Md., USA. The human hepatocellular cancinoma cells QGY-7703, and the multi-drug resistant cell line QGY-TR50 derived from QGY-7703, were generously provided by Prof. Yong Xie (The Hong Kong University of Science and Technology, Hong Kong PRC). QGY-TR50 cells were isolated and cultured as described (J. Zhou, S. C. Cheng, D. Luo, Y. Xie Biochem. Biophys. Res. Commun. 2001, 280, 1237-1242). Human nasopharyngeal carcinoma cells (SUNE1 and its cisplatin-resistant variant—CNE2) were derived from poorly differentiated NPC in Chinese patients and were generously provided by Dr. S. W. Tsao (The University of Hong Kong, Hong Kong PRC). Cell culture flasks and 96-well microtitre plates were from Nalge Nunc Int. Culture medium, other medium constituents and phosphate buffer saline (PBS) were obtained by Gibco BRL Rockville, Md., USA. Cell Proliferation kit I (MTT) was purchased from Roche. Mannheim, Germany.

[3] = system: HeLa cells; assay: FACS cell cycle analysis with PI staining; assay type: cell-based, human; conditions: 2 μM
Protocol: Instrumentation. All absorption spectra were recorded on a Perkin-Elmer Lambda 900 and Perkin-Elmer Fusion α-FP. Positive ion FAB mass spectra were recorded on a Finnigan MAT95 mass spectrometer. ^1HNMR spectra were recorded on Brucker DPX-300 or DPX-400 NMR spectrometers. Flow cytometric analysis was performed with a Coulter EPICS flow cytometer (Coulter, Miami, Fla.) equipped with 480 long, 525 band and 625 long pass mirrors. Samples were excited by 15 mW air-cool argon convergent laser at 488 nm. Fluorescence signal were manipulated with Coulter Elite 4.0 software (Coulter) and were analyzed by Winlist 1.04 and Modfit 5011 software (verity Software House, Topsham, Me.).
Fluorescence-Activated Cell Sortings (FACS). Cells in different phases of the cell cycle can be differentiated by the DNA content, which can be distinguished by FACS after staining the cells with propidium iodide (PI). Resting cells are said to be in the G0 phase of the cell cycle. Once the cell is instructed to divide, it enters the active phase of the cell cycle, which is consisted of G1, S, G2 and M phase. Treatment of cancer cells with cytotoxic agents may induce cell cycle arrest at a particular phase of the cell cycle. Flow cytometry with PI staining was performed in HeLa cells treated with complex 1 (2 μM) for 0, 6 h, 12 h, 18 h, 24 h, 36 h and 48 h. […]

[4] = system: cisplatin-resistant variant (CNE2) of human nasopharyngeal carcinoma cells; assay: MTT cell viability assay, CNE2; assay type: cell-based
Description: as §1

[5] = system: human hepatocellular cancinoma cells QGY-7703; assay: MTT cell viability assay, QGY-7703; assay type: cell-based
Description: as §1

[6] = system: human nasopharyngeal carcinoma cells (SUNE1); assay: MTT cell viability assay, SUNE1; assay type: cell-based
Description: as §1

[7] = system: human coloadenocarcinoma cells (HCT-8); assay: MTT cell viability assay, HCT-8; assay type: cell-based
Description: as §1

[8] = system: normal human lung fibroblast cells (CCD-19Lu); assay: MTT cell viability assay, CCD-19Lu; assay type: cell-based
Description: as §1

[9] = system: HeLa cells; assay: Confocal microscopy with AO/EB staining; assay type: cell-based, human; conditions: complex 1 0.2 μM 20 h, complex 2b 10 μM 16 h
Description: Confocal Microscopic Experiment. By examining cell morphology under scanning confocal microscopy, the type of cell death can be distinguished. Early phase of apoptosis is characterized by the formation of apoptotic bodies when the integrity of the cell membrane is maintained without cell lysis. On the other hand, necrosis is characterized by cell lyses with the leaking out of internal cellular components such as DNA. With ethidium bromide (DNA stain) and acridine orange (cell membrane stain) as staining agents, normal, apoptotic and necrotic cells can be distinguished under laser confocal microscopy (Chan et. al., Inorg. Chem. 2002, 41, 3161-3171).

[10] = IC50 of cisplatin divided by IC50 of complex

[Yb2(OEP)2](μ-OH)2 [Complex 1]
expression of caspase 3 [1]: decrease dramatically | IC50 ratio cisplatin/complex, QGY-TR50 [2, 10]: 60.3 | IC50 ([2]; MTT, 37° C., 48 h, mean ± SD): 0.54 µM | change in proportion of cells in G0-G1, G2-M and S phase ([3]; 0-48 h, PI staining): no observable change | cells showing DNA fragmentation ([3]; 48 h): more than 60% | IC50 ratio cisplatin/complex, CNE2 [4, 10]: 17.2 | IC50 ([4]; MTT, 37° C., 48 h, mean ± SD): 3.35 µM | IC50 ratio cisplatin/complex, QGY-7703 [5, 10]: 763 | IC50 ([5]; MTT, 37° C., 48 h, mean ± SD): 0.06 µM | times more effective than cisplatin in eradicating QGY-7703 human liver cancer cell line ([5]; compared with cisplatin): 760 times | IC50 ratio cisplatin/complex, SUNE1 [6, 10]: 4.8 | IC50 ([6]; MTT, 37° C., 48 h, mean ± SD): 2.45 µM | IC50 ratio cisplatin/complex, HCT-8 [7, 10]: 11.6 | IC50 ([7]; MTT, 37° C., 48 h, mean ± SD): 2.27 ± 0.6 µM | IC50 ratio cisplatin/complex, CCD-19Lu [8, 10]: 16.8 | IC50 ([8]; MTT, 37° C., 48 h, mean ± SD): 5.4 ± 6.8 µM | cell morphology (type of cell death) under confocal microscopy [9]: both living and apoptotic cells were observed
